Test results from PMC7589200, “Identification of Putative Non-Substrate-Based XT-I Inhibitors by Natural Product Library Screening” (Biomolecules, 2020).
Structures can show the parent of a compound that is named as a salt.

molecular target: T1, recombinant human XT-I (Homo sapiens, UniProt Q86Y38); experiment: NP library inhibitor screening, UPLC/ESI-MS/MS XT-I assay; assay type: biochemical; details: Table S1; 50 μM inhibitor; relative to negative control containing DMSO; technical duplicates
T1 sequence (Q86Y38 252-959 limits assumed): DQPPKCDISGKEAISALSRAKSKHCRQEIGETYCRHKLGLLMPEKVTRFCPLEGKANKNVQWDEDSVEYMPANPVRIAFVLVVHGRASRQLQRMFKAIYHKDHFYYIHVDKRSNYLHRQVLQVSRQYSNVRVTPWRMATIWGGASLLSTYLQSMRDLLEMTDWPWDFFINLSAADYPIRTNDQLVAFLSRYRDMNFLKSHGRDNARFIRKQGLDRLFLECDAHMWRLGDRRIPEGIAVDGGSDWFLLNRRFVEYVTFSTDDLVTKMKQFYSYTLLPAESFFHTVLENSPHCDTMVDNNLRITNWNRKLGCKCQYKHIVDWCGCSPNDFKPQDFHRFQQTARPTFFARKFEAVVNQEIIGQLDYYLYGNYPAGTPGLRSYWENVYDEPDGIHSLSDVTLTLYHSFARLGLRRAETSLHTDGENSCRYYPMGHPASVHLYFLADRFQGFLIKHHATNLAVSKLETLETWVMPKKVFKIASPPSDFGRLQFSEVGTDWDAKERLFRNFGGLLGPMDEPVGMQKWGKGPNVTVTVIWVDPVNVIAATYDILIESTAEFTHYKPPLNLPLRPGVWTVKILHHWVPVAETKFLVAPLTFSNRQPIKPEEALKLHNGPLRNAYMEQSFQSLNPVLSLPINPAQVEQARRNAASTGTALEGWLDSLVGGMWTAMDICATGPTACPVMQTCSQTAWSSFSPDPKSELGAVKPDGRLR

Row | SMILES | XT-I Activity [%] | remaining activity at 50 µM
1 | CN(N=O)C(=O)N[C@H]1C(O)O[C@H](CO)[C@@H](O)[C@@H]1O (mixture of isomers) [Compound 3, Streptozotocin (STZ)] | 101% | –
2 | OC[C@H]1O[C@@H](O[C@@H]2[C@@H](CO)OC(O)(CO)[C@H]2O)[C@H](O)[C@@H](O)[C@H]1O (mixture of isomers) [Compound 16, Lactulose] | – | 122%
3 | CO[C@H]1C[C@@H]2CC[C@@H](C)[C@@](O)(O2)C(=O)C(=O)N2CCCC[C@H]2C(=O)O[C@H]([C@H](C)C[C@@H]2CC[C@@H](O)[C@H](OC)C2)CC(=O)[C@H](C)/C=C(\C)[C@@H](O)[C@@H](OC)C(=O)[C@H](C)C[C@H](C)/C=C/C=C/C=C/1C [Compound 1, Rapamycin (Sirolimus)] | – | 70%
4 | COc1cccc2c1C(=O)c1c(O)c3c(c(O)c1C2=O)C[C@@](O)(C(=O)CO)C[C@@H]3O[C@H]1C[C@H](N)[C@@H](O)[C@H](C)O1 [Compound 2, Epirubicin HCl] | – | 95%
5 | C[C@@H](O)[C@H]1C(=O)N2C(C(=O)O)=C(S[C@@H]3CN[C@H](CNS(N)(=O)=O)C3)[C@H](C)[C@H]12.O [Compound 4, Doripenem Hydrate] | 86% | –
6 | C[C@H]1[C@H](NC(=O)/C(=N\OC(C)(C)C(=O)O)c2csc(N)n2)C(=O)N1S(=O)(=O)O [Compound 5, Aztreonam] | – | 94%
7 | CC[C@H]1OC(=O)[C@H](C)[C@@H](O[C@H]2C[C@@](C)(OC)[C@@H](O)[C@H](C)O2)[C@H](C)[C@@H](O[C@@H]2O[C@H](C)C[C@H](N(C)C)[C@H]2O)[C@](C)(O)C[C@@H](C)C(=O)[C@H](C)[C@@H](O)[C@]1(C)O [Compound 6, Erythromycin] | – | 105%
8 | Nc1[nH]c(=O)ncc1F [Compound 7, Flucytosine] | – | 93%
9 | CO[C@H]1/C=C/O[C@@]2(C)Oc3c(C)c(O)c4c(c3C2=O)C2=NC3(CCN(CC(C)C)CC3)NC2=C(NC(=O)/C(C)=C\C=C\[C@H](C)[C@H](O)[C@@H](C)[C@@H](O)[C@@H](C)[C@H](OC(C)=O)[C@@H]1C)C4=O [Compound 8, Rifabutin] | – | 112%
10 | Nc1ncnc2c1ncn2[C@@H]1O[C@H](CO)[C@@H](O)[C@@H]1O [Compound 9, Vidarabine] | – | 103%
11 | O=c1c(-c2ccc(O)cc2)coc2cc(O)ccc12 [Compound 10, Daidzein] | – | 115%
12 | CC(=O)[C@H]1CC[C@H]2[C@@H]3CC=C4C[C@@H](O)CC[C@]4(C)[C@H]3CC[C@]12C [Compound 11, Pregnenolone] | 95% | –
13 | CO[C@H]1/C=C\C=C(/C)C(=O)NC2=CC(=O)C(NCCN(C)C)=C(C[C@@H](C)C[C@H](OC)[C@H](O)[C@@H](C)/C=C(\C)[C@@H]1OC(N)=O)C2=O.Cl [Compound 12, Alvespimycin (17-DMAG) HCl] | 120% | –
14 | COc1cc([C@@H]2c3cc4c(cc3[C@@H](O[C@@H]3O[C@@H]5CO[C@@H](C)O[C@H]5[C@H](O)[C@H]3O)[C@H]3COC(=O)[C@H]23)OCO4)cc(OC)c1O [Compound 13, Etoposide] | – | 114%
15 | C=C1C(=O)O[C@@H]2/C=C(\C)CC/C=C(\C)CC[C@@H]12 [Compound 14, Costunolide] | – | 121%
16 | CC1=C(/C=C/C(C)=C/C=C/C(C)=C\C(=O)O)C(C)(C)CCC1 [Compound 15, Isotretinoin] | – | 86%
17 | Cn1c(=O)c2[nH]cnc2n(C)c1=O [Compound 18, Aminophylline] | – | 122%
18 | O=C(O)c1cccnc1 [Compound 19, Nicotinic Acid] | – | 126%

Row | SMILES | XT-I Activity [%] | remaining activity at 50 µM
19 | CO[C@H]1/C=C/O[C@@]2(C)Oc3c(C)c(O)c4c(O)c(c5c(nc6cc(C)ccn65)c4c3C2=O)NC(=O)/C(C)=C\C=C\[C@H](C)[C@H](O)[C@@H](C)[C@@H](O)[C@@H](C)[C@H](OC(C)=O)[C@@H]1C [Compound 20, Rifaximin] | – | 83%
20 | CCn1cc(C(=O)O)c(=O)c2cc(F)c(N3CCN(C)CC3)cc21 [Compound 21, Pefloxacin Mesylate] | – | 108%
21 | Cc1cc(NS(=O)(=O)c2ccc(N)cc2)no1 [Compound 22, Sulfamethoxazole] | – | 121%
22 | CC(=O)O[C@@]12CO[C@@H]1C[C@H](O)[C@@]1(C)C(=O)[C@H](O)C3=C(C)[C@@H](OC(=O)[C@H](O)[C@@H](NC(=O)OC(C)(C)C)c4ccccc4)C[C@@](O)([C@@H](OC(=O)c4ccccc4)[C@H]21)C3(C)C [Compound 23, Docetaxel] | – | 104%
23 | COc1cc2c(cc1O)CC[C@@H]1[C@@H]2CC[C@]2(C)[C@@H](O)CC[C@@H]12 [Compound 24, 2-Methoxyestradiol (2-MeOE2)] | 114% | –
24 | C[C@@H]1C[C@H]2[C@@H]3CCC4=CC(=O)C=C[C@]4(C)[C@@]3(F)[C@@H](O)C[C@]2(C)[C@@]1(O)C(=O)CO [Compound 25, Dexamethasone (DHAP)] | 106% | –
25 | C[C@@H](O)[C@H]1C(=O)N2C(C(=O)O)=C(S[C@@H]3CN[C@H](C(=O)N(C)C)C3)[C@H](C)[C@H]12 [Compound 26, Meropenem] | – | 107%
26 | C[C@@H]1C/C=C/C=C/C=C/C=C/[C@H](O[C@@H]2O[C@H](C)[C@@H](O)[C@H](N)[C@@H]2O)C[C@@H]2O[C@](O)(C[C@@H](O)C[C@H]3O[C@@H]3/C=C/C(=O)O1)C[C@H](O)[C@H]2C(=O)O [Compound 27, Natamycin] | – | 95%
27 | CCCSc1ccc2nc(NC(=O)OC)[nH]c2c1 [Compound 28, Albendazole] | – | 77%
28 | CCC(C)(C)c1ccc(CC(C)CN2C[C@@H](C)O[C@@H](C)C2)cc1 (stereo partly drawn) [Compound 29, Amorolfine HCl] | – | 70%
29 | CO[C@H]1/C=C/O[C@@]2(C)Oc3c(C)c(O)c4c(O)c(c(/C=N/N5CCN(C6CCCC6)CC5)c(O)c4c3C2=O)NC(=O)/C(C)=C\C=C\[C@H](C)[C@H](O)[C@@H](C)[C@@H](O)[C@@H](C)[C@H](OC(C)=O)[C@@H]1C [Compound 30, Rifapentine] | – | 50%
30 | CCC(C)(C)C(=O)O[C@H]1C[C@@H](C)C=C2C=C[C@H](C)[C@H](CC[C@@H]3C[C@@H](O)CC(=O)O3)[C@H]21 [Compound 31, Simvastatin] | – | 82%
31 | CC(C)[C@H](N)C(=O)OCCOCn1cnc2c(=O)nc(N)[nH]c21.Cl [Compound 32, Valaciclovir HCl] | 74% | –
32 | Cc1noc(NS(=O)(=O)c2ccc(N)cc2)c1C [Compound 33, Sulfisoxazole] | – | 95%
33 | CC(=O)O[C@H]1C(=O)[C@@]2(C)[C@H]([C@H](OC(=O)c3ccccc3)[C@]3(O)C[C@H](OC(=O)[C@H](O)[C@@H](NC(=O)c4ccccc4)c4ccccc4)C(C)=C1C3(C)C)[C@]1(OC(C)=O)CO[C@@H]1C[C@@H]2O [Compound 34, Paclitaxel] | – | 79%
34 | CC[C@]1(O)C[C@H]2CN(CCc3c([nH]c4ccccc34)[C@@](C(=O)OC)(c3cc4c(cc3OC)N(C=O)[C@H]3[C@@](O)(C(=O)OC)[C@H](OC(C)=O)[C@]5(CC)C=CCN6CC[C@]43[C@@H]65)C2)C1 [Compound 35, Vincristine sulfate] | – | 87%
35 | OC(Cn1cncn1)(Cn1cncn1)c1ccc(F)cc1F [Compound 36, Fluconazole] | – | 75%
36 | Oc1ccc(/C=C/c2cc(O)cc(O)c2)cc1 [Compound 37, Resveratrol] | – | 51%
